Read-outs that look alike come from different tables or passages of the source.
Columns and labels:
Assay in all cases: KinomeScan kinase panel, single concentration 10 µM
Format in all cases: binding
KinomeScan kinase panel [1] = target: T1, KinomeScan kinase panel (Homo sapiens, UniProt O15197); conditions: EPHB6, 10 µM; read-out: score (%)
T1 construct: purchased DiscoveRx (KinomeScan)

KinomeScan kinase panel [2] = target: T2, KinomeScan kinase panel (Homo sapiens, UniProt O75460); conditions: ERN1, 10 µM; read-out: score (%)
T2 construct: purchased DiscoveRx (KinomeScan)

KinomeScan kinase panel [3] = target: T3, KinomeScan kinase panel (Homo sapiens, UniProt O95747); conditions: OSR1, 10 µM; read-out: score (%)
T3 construct: purchased DiscoveRx (KinomeScan)
T3 sequence (O95747 whole entry): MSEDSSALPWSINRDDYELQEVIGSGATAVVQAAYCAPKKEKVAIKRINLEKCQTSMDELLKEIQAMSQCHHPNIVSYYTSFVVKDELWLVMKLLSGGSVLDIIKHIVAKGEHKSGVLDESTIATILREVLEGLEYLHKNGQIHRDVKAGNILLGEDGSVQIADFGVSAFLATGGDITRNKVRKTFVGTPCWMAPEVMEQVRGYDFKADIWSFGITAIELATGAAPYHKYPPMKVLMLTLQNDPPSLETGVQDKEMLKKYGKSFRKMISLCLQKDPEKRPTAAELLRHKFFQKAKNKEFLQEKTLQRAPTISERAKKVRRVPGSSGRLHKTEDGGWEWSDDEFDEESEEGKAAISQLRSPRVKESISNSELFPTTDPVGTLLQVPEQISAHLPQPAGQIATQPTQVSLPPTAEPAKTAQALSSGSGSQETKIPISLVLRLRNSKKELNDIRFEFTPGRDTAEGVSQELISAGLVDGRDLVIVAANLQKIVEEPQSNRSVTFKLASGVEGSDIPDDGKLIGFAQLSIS

KinomeScan kinase panel [4] = target: T4, KinomeScan kinase panel (Homo sapiens, UniProt P21860); conditions: ERBB3, 10 µM; read-out: score (%)
T4 construct: purchased DiscoveRx (KinomeScan)
T4 sequence (P21860 20-1342): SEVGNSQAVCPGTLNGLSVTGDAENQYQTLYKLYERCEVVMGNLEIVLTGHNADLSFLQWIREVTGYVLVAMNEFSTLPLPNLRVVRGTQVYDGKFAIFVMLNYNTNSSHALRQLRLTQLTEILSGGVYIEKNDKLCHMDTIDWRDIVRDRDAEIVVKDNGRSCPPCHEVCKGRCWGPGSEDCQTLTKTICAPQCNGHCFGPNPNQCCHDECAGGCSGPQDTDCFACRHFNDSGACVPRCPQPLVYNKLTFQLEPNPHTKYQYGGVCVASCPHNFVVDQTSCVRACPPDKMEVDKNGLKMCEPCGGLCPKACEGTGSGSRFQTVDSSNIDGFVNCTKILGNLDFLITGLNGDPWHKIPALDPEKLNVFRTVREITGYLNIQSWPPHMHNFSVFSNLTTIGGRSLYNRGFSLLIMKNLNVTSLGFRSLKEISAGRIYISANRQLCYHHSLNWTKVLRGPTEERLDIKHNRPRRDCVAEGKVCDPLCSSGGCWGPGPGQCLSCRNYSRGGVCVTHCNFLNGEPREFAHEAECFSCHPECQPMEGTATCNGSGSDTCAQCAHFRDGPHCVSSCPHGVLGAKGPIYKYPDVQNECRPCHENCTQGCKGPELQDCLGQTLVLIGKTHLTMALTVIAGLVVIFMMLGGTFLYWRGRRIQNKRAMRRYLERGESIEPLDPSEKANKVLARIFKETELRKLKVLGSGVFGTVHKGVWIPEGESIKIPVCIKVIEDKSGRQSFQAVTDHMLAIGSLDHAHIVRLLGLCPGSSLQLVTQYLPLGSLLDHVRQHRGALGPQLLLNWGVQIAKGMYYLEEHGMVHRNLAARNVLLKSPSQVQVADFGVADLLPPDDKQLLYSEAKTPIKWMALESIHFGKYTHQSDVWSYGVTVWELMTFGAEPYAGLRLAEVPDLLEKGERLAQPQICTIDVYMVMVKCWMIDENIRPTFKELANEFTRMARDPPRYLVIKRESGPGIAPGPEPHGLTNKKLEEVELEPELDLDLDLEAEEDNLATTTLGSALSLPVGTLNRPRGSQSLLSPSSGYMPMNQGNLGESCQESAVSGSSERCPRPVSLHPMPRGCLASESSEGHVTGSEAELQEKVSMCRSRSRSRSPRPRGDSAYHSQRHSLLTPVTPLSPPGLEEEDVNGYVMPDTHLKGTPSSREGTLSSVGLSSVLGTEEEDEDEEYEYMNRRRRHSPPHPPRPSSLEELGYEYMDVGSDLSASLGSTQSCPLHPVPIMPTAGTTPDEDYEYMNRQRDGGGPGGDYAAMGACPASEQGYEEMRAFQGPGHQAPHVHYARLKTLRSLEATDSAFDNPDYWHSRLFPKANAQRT

KinomeScan kinase panel [5] = target: T5, KinomeScan kinase panel (Homo sapiens, UniProt P57058); conditions: HUNK, 10 µM; read-out: score (%)
T5 construct: purchased DiscoveRx (KinomeScan)

KinomeScan kinase panel [6] = target: T6, KinomeScan kinase panel (Homo sapiens, UniProt Q13464); conditions: read-out: score (%)
T6 construct: purchased DiscoveRx (KinomeScan)
T6 sequence (Q13464 whole entry): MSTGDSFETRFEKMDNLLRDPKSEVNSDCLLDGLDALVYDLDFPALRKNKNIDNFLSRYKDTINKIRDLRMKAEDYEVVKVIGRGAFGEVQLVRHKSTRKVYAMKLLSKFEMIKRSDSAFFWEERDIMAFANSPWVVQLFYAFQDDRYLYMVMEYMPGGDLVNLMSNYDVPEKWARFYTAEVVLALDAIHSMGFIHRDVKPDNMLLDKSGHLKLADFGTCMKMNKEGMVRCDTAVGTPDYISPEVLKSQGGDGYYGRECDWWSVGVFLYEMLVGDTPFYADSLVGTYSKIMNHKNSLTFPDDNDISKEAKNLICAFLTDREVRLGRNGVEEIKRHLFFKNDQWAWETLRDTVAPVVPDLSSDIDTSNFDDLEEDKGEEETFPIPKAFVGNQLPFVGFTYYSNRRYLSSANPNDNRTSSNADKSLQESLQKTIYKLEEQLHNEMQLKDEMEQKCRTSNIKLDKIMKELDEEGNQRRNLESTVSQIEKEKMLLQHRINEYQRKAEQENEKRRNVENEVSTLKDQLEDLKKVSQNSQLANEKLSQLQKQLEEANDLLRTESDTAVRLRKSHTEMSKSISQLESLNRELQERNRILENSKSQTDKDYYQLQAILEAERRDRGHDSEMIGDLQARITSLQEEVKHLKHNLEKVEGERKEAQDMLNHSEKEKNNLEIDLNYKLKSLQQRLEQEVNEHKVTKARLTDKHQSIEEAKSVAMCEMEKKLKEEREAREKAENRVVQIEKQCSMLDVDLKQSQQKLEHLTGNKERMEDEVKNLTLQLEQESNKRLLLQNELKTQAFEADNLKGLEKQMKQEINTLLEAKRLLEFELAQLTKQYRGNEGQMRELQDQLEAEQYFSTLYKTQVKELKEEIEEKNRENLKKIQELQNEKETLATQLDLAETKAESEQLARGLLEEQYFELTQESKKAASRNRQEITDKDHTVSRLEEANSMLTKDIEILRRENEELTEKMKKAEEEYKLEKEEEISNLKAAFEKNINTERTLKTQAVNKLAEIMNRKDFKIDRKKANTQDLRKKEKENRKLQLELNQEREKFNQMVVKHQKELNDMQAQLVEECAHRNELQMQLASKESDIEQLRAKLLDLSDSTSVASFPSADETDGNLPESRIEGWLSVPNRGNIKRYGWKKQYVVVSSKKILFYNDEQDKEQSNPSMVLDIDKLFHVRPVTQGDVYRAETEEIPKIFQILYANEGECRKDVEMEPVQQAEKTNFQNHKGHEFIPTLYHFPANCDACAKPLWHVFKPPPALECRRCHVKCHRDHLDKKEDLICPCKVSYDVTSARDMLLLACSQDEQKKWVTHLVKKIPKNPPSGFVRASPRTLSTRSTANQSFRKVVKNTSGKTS

KinomeScan kinase panel [7] = target: T7, KinomeScan kinase panel (Homo sapiens, UniProt Q6ZN16); conditions: MAP3K15, 10 µM; read-out: score (%)
T7 construct: purchased DiscoveRx (KinomeScan)

KinomeScan kinase panel [8] = target: T8, KinomeScan kinase panel (Homo sapiens, UniProt Q8IVW4); conditions: CDKL3, 10 µM; read-out: score (%)
T8 construct: purchased DiscoveRx (KinomeScan)

KinomeScan kinase panel [9] = target: T9, KinomeScan kinase panel (Homo sapiens, UniProt Q8NE63); conditions: HIPK4, 10 µM; read-out: score (%)
T9 construct: purchased DiscoveRx (KinomeScan)

KinomeScan kinase panel [10] = target: T10, KinomeScan kinase panel (Homo sapiens, UniProt Q9Y2H9); conditions: MAST1, 10 µM; read-out: score (%)
T10 construct: purchased DiscoveRx (KinomeScan)

KinomeScan kinase panel [11] = target: T11, KinomeScan kinase panel (Homo sapiens, UniProt Q9Y6M4); conditions: CSNK1G3, 10 µM
T11 construct: purchased DiscoveRx (KinomeScan)
T11 sequence (Q9Y6M4 whole entry): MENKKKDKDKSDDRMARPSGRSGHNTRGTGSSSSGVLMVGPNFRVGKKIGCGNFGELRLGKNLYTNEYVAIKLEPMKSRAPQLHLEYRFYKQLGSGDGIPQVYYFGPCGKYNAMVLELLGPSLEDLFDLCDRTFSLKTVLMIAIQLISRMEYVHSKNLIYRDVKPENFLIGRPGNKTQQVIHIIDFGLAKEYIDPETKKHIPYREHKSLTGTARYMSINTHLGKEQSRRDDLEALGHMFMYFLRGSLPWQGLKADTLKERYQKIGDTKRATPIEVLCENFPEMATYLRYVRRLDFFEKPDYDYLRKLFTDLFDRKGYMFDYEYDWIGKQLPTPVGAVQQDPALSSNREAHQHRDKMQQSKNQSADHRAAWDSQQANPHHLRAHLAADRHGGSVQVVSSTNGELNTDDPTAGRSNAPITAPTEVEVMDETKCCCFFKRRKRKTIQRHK

KinomeScan kinase panel [12] = target: T12, KinomeScan kinase panel (Homo sapiens, UniProt O14733); conditions: MKK7, 10 µM
T12 construct: purchased DiscoveRx (KinomeScan)

KinomeScan kinase panel [13] = target: T13, KinomeScan kinase panel (Homo sapiens, UniProt O14936); conditions: CASK, 10 µM; read-out: score (%)
T13 construct: purchased DiscoveRx (KinomeScan)

KinomeScan kinase panel [14] = target: T14, KinomeScan kinase panel (Homo sapiens, UniProt P10721, A829P); conditions: KIT(A829P), 10 µM; read-out: score (%)
T14 construct: purchased DiscoveRx (KinomeScan)

KinomeScan kinase panel [15] = target: T15, KinomeScan kinase panel (Homo sapiens, UniProt P10721, D816H); conditions: KIT(D816H), 10 µM; read-out: score (%)
T15 construct: purchased DiscoveRx (KinomeScan)

KinomeScan kinase panel [16] = target: T16, KinomeScan kinase panel (Homo sapiens, UniProt P23443); conditions: kinase S6K1; 10 µM; read-out: score (%)
T16 construct: purchased DiscoveRx (KinomeScan)

KinomeScan kinase panel [17] = target: T17, KinomeScan kinase panel (Homo sapiens, UniProt P41743); conditions: kinase PRKCI; 10 µM; read-out: score (%)
T17 construct: purchased DiscoveRx (KinomeScan)

KinomeScan kinase panel [18] = target: T18, KinomeScan kinase panel (Homo sapiens, UniProt P42336, I800L); conditions: PIK3CA(I800L), 10 µM; read-out: score (%)
T18 construct: purchased DiscoveRx (KinomeScan)

KinomeScan kinase panel [19] = target: T19, KinomeScan kinase panel (Homo sapiens, UniProt P48729); conditions: CSNK1A1, 10 µM; read-out: score (%)
T19 construct: purchased DiscoveRx (KinomeScan)

KinomeScan kinase panel [20] = target: T20, KinomeScan kinase panel (Homo sapiens, UniProt P51957); conditions: NEK4, 10 µM; read-out: score (%)
T20 construct: purchased DiscoveRx (KinomeScan)

KinomeScan kinase panel [21] = target: T21, KinomeScan kinase panel (Homo sapiens, UniProt Q00532); conditions: CDKL1, 10 µM; read-out: score (%)
T21 construct: purchased DiscoveRx (KinomeScan)

KinomeScan kinase panel [22] = target: T22, KinomeScan kinase panel (Homo sapiens, UniProt Q14004); conditions: CDC2L5, 10 µM
T22 construct: purchased DiscoveRx (KinomeScan)

KinomeScan kinase panel [23] = target: T23, KinomeScan kinase panel (Homo sapiens, UniProt Q5S007); conditions: LRRK2, 10 µM; read-out: score (%)
T23 construct: purchased DiscoveRx (KinomeScan)

KinomeScan kinase panel [24] = target: T24, KinomeScan kinase panel (Homo sapiens, UniProt Q5S007, G2019S); conditions: LRRK2(G2019S), 10 µM; read-out: score (%)
T24 construct: purchased DiscoveRx (KinomeScan)

KinomeScan kinase panel [25] = target: T25, KinomeScan kinase panel (Homo sapiens, UniProt Q86Y07); conditions: kinase VRK2; 10 µM; read-out: score (%)
T25 construct: purchased DiscoveRx (KinomeScan)

KinomeScan kinase panel [26] = target: T26, KinomeScan kinase panel (Homo sapiens, UniProt Q8NG66); conditions: NEK11, 10 µM; read-out: score (%)
T26 construct: purchased DiscoveRx (KinomeScan)

KinomeScan kinase panel [27] = target: T27, KinomeScan kinase panel (Homo sapiens, UniProt Q8TBX8); conditions: PIP5K2C, 10 µM; read-out: score (%)
T27 construct: purchased DiscoveRx (KinomeScan)
T27 sequence (Q8TBX8 whole entry): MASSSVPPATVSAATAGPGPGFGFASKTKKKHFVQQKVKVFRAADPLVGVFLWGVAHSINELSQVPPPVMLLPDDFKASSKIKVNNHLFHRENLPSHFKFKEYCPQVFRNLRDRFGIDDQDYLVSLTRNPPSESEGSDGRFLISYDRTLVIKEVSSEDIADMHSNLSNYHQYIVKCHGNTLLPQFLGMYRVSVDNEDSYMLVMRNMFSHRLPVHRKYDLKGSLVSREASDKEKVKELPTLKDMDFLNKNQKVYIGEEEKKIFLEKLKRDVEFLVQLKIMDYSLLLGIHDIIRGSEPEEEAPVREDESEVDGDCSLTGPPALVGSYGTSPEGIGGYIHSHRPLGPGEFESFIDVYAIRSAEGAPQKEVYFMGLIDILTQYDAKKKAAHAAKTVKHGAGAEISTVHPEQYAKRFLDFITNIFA

KinomeScan kinase panel [28] = target: T28, KinomeScan kinase panel (Homo sapiens, UniProt Q8WU08); conditions: kinase YANK1; 10 µM; read-out: score (%)
T28 construct: purchased DiscoveRx (KinomeScan)

KinomeScan kinase panel [29] = target: T29, KinomeScan kinase panel (Homo sapiens, UniProt Q9BQI3); conditions: EIF2AK1, 10 µM; read-out: score (%)
T29 construct: purchased DiscoveRx (KinomeScan)

KinomeScan kinase panel [30] = target: T30, KinomeScan kinase panel (Homo sapiens, UniProt Q9BX84); conditions: kinase TRPM6; 10 µM; read-out: score (%)
T30 construct: purchased DiscoveRx (KinomeScan)

KinomeScan kinase panel [31] = target: T31, KinomeScan kinase panel (Homo sapiens, UniProt Q9NWZ3); conditions: IRAK4, 10 µM
T31 construct: purchased DiscoveRx (KinomeScan)

KinomeScan kinase panel [32] = target: T32, KinomeScan kinase panel (Mycobacterium tuberculosis, UniProt P9WI81); conditions: PKNB(M.tuberculosis), 10 µM; read-out: score (%)
T32 construct: purchased DiscoveRx (KinomeScan)

KinomeScan kinase panel [33] = target: T33, KinomeScan kinase panel (Plasmodium falciparum, UniProt P61075); conditions: PFPK5(P.falciparum), 10 µM; read-out: score (%)
T33 construct: purchased DiscoveRx (KinomeScan)

KinomeScan kinase panel [34] = target: T34, KinomeScan kinase panel (Plasmodium falciparum, UniProt P62344); conditions: PFCDPK1(P.falciparum), 10 µM; read-out: score (%)
T34 construct: purchased DiscoveRx (KinomeScan)

T1 sequence (O15197 32-1021): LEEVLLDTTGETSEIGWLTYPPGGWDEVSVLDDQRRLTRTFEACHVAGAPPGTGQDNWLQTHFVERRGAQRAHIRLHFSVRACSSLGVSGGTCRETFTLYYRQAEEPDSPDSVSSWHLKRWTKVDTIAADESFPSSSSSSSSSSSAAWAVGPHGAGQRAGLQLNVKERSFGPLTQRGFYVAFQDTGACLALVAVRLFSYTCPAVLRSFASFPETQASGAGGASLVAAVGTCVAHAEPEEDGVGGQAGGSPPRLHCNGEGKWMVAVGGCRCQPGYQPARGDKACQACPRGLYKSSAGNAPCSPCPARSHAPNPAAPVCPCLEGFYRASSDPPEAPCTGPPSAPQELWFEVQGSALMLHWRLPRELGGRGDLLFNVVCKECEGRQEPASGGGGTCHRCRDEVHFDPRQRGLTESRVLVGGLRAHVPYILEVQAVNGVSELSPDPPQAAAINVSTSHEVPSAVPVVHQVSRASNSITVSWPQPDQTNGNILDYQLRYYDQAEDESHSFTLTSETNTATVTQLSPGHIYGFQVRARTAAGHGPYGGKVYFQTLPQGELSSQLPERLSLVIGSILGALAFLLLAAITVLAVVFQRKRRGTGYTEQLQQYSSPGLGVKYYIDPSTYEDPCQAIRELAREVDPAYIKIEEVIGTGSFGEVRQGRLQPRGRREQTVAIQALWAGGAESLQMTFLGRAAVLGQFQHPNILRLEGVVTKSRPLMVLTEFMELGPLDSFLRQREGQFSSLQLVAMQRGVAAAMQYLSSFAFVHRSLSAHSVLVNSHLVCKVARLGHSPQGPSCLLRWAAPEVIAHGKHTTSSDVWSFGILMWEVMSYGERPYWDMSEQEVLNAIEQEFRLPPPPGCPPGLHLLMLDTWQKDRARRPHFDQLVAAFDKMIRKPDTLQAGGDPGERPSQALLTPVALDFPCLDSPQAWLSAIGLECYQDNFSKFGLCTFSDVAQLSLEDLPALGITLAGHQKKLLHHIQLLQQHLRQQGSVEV

## CCN1CCN(Cc2ccc(NC(=O)c3ccc(C)c(NC(=O)c4cncc(-c5cccs5)c4)c3)cc2C(F)(F)F)CC1 [ALW-II-41-27]
KinomeScan kinase panel [1]
  remaining binding at 10 µM: 1.2%
KinomeScan kinase panel [2]
  remaining binding at 10 µM: 1.4%
KinomeScan kinase panel [3]
  remaining binding at 10 µM: > 30%
KinomeScan kinase panel [4]
  remaining binding at 10 µM: > 30%
KinomeScan kinase panel [5]
  remaining binding at 10 µM: > 30%
KinomeScan kinase panel [6]; ROCK1, 10 µM
  remaining binding at 10 µM: 0%
KinomeScan kinase panel [7]
  remaining binding at 10 µM: > 30%
KinomeScan kinase panel [8]
  remaining binding at 10 µM: 9.8%
KinomeScan kinase panel [9]
  remaining binding at 10 µM: 25%
KinomeScan kinase panel [10]
  remaining binding at 10 µM: > 30%

## CCN1CCN(Cc2ccc(NC(=O)c3ccc(C)c(/C=C/c4cnc5[nH]ccc5c4Cl)c3)cc2C(F)(F)F)CC1 [HG-6-63-01, (E)-3-(2-(4-chloro-1H-pyrrolo[2,3-b]pyridin-5-yl)vinyl)-N-(4-((4-ethylpiperazin-1-yl)methyl)-3-(trifluoromethyl)phenyl)-4-methylbenzamide]
KinomeScan kinase panel [11]
  score (%): nb (Hits values higher than 30% were considered negative (no binding: nb))

## CCN1CCN(Cc2ccc(NC(=O)c3ccc(C)c(C#Cc4cccnc4)c3)cc2C(F)(F)F)CC1 [XMD15-44]
KinomeScan kinase panel [12]
  score (%): 11%
KinomeScan kinase panel [13]
  remaining binding at 10 µM: > 30%
KinomeScan kinase panel [1]
  remaining binding at 10 µM: 8.8%
KinomeScan kinase panel [2]
  remaining binding at 10 µM: > 30%
KinomeScan kinase panel [3]
  remaining binding at 10 µM: 48%
KinomeScan kinase panel [14]
  remaining binding at 10 µM: 27%
KinomeScan kinase panel [15]
  remaining binding at 10 µM: 6%
KinomeScan kinase panel [4]
  remaining binding at 10 µM: > 30%
KinomeScan kinase panel [16]
  remaining binding at 10 µM: 11%
KinomeScan kinase panel [17]
  remaining binding at 10 µM: 42%
KinomeScan kinase panel [18]
  remaining binding at 10 µM: 72%
KinomeScan kinase panel [19]
  remaining binding at 10 µM: > 30%
KinomeScan kinase panel [20]
  remaining binding at 10 µM: 6.4%
KinomeScan kinase panel [5]
  remaining binding at 10 µM: > 30%
KinomeScan kinase panel [21]
  remaining binding at 10 µM: > 30%
KinomeScan kinase panel [6]; kinase ROCK1, 10 µM
  remaining binding at 10 µM: 43%
KinomeScan kinase panel [22]
  score (%): 6.5%
KinomeScan kinase panel [23]
  remaining binding at 10 µM: 3.4%
KinomeScan kinase panel [24]
  remaining binding at 10 µM: 7.5%
KinomeScan kinase panel [7]
  remaining binding at 10 µM: > 30%
KinomeScan kinase panel [25]
  remaining binding at 10 µM: 95%
KinomeScan kinase panel [8]
  remaining binding at 10 µM: 0.65%
KinomeScan kinase panel [9]
  remaining binding at 10 µM: 2.2%
KinomeScan kinase panel [26]
  remaining binding at 10 µM: 9.1%
KinomeScan kinase panel [27]
  remaining binding at 10 µM: 100%
KinomeScan kinase panel [28]
  remaining binding at 10 µM: 81%
KinomeScan kinase panel [29]
  remaining binding at 10 µM: > 30%
KinomeScan kinase panel [30]
  remaining binding at 10 µM: 49%
KinomeScan kinase panel [31]
  score (%): nb (Hits values higher than 30% were considered negative (no binding: nb))
KinomeScan kinase panel [10]
  remaining binding at 10 µM: > 30%
KinomeScan kinase panel [11]
  score (%): nb (Hits values higher than 30% were considered negative (no binding: nb))
KinomeScan kinase panel [32]
  remaining binding at 10 µM: 87%
KinomeScan kinase panel [33]
  remaining binding at 10 µM: 89%
KinomeScan kinase panel [34]
  remaining binding at 10 µM: 0.05%

From paper PMC4457528, “Identification of Novel Small Molecule Inhibitors of Oncogenic RET Kinase” (PLoS ONE, 2015)
